SMILES strings stand for the structures. The source made the active and inactive calls. No cut-off for these calls is given here. Some results are limits rather than exact numbers.

This is an account of results in ChEMBL document CHEMBL1144174, “Design and synthesis of 6-fluoro-2-naphthyl derivatives as novel CCR3 antagonists with reduced CYP2D6 inhibition” (Bioorg Med Chem, 2008).

In one assay the target is T1, Cytochrome P450 1A2 (Homo sapiens, UniProt P05177).
T1 sequence (P05177 whole entry): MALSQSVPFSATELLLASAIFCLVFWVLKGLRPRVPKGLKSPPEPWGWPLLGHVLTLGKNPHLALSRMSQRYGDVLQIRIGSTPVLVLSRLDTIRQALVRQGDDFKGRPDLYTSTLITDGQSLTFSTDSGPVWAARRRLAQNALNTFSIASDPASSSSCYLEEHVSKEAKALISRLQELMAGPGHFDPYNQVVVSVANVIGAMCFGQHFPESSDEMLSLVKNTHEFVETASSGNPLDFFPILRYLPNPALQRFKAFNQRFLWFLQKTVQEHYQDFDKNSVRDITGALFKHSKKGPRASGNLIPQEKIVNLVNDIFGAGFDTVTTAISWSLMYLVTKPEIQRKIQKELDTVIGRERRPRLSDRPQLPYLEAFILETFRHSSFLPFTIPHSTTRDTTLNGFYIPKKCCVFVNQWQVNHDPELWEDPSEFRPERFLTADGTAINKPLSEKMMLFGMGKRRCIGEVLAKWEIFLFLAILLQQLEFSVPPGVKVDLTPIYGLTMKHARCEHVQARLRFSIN
Nature of the assay: Inhibition of human CYP1A2. Format: ADME.

In the next assay the target is Cytochrome P450 2C9 (Homo sapiens, UniProt P11712). Nature of the assay: Inhibition of human CYP2C9. It is filed as ADME.
The target of another assay is Cytochrome P450 3A4 (Homo sapiens, UniProt P08684). Nature of the assay: Inhibition of human CYP3A4. It is filed as ADME.
The target in another assay is Cytochrome P450 2C19 (Homo sapiens, UniProt P33261). Put plainly: Inhibition of human CYP2C19. Format: ADME.
The target in the next assay is Cytochrome P450 2D6 (Homo sapiens, UniProt P10635). Put plainly: Inhibition of human CYP2D6 by fluorescence technique in presence of NADP. It is filed as ADME.
The target in assay [1] is T2, C-C chemokine receptor type 3 (Homo sapiens, UniProt P51677).
T2 sequence (P51677 whole entry): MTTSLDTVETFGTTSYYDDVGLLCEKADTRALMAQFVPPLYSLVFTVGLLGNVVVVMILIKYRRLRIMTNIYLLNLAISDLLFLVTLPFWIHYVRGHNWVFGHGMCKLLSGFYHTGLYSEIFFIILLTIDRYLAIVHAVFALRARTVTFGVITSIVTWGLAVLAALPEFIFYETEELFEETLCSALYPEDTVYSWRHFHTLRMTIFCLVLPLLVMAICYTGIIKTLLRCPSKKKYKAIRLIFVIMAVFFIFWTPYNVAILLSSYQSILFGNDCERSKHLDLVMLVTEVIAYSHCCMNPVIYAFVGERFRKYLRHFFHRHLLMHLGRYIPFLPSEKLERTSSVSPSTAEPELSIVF
Put plainly: Antagonist activity at CCR3 receptor expressed in mouse B300-19 cells assessed as inhibition of eotaxin-induced calcium influx by spectrophotometry. Format: functional, cell-based.

Assay [2] concerns the target T3, C-C chemokine receptor type 1 (Homo sapiens) (UniProt P32246).
T3 sequence (whole entry): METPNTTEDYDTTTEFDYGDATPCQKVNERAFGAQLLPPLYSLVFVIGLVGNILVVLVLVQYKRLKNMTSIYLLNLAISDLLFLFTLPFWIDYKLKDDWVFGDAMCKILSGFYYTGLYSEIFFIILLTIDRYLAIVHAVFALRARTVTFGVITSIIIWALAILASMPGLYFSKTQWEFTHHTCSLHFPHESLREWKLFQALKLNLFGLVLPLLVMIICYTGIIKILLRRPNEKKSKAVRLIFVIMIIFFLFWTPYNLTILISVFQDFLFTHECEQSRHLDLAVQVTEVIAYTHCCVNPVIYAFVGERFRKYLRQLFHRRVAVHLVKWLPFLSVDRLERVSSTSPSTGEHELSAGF
Nature of the assay: Inhibition of CCR1 receptor at 10 uM.

Assay [3] has as its target C-C chemokine receptor type 5 (Homo sapiens) (UniProt P51681). Put plainly: Inhibition of CCR5 receptor at 10 uM.
Assay [4] deals with C-C chemokine receptor type 2 (Homo sapiens) (UniProt P41597). Put plainly: Inhibition of CCR2 receptor at 10 uM.
Sequence of C-C chemokine receptor type 2 (Homo sapiens) (P41597 whole entry, looked up): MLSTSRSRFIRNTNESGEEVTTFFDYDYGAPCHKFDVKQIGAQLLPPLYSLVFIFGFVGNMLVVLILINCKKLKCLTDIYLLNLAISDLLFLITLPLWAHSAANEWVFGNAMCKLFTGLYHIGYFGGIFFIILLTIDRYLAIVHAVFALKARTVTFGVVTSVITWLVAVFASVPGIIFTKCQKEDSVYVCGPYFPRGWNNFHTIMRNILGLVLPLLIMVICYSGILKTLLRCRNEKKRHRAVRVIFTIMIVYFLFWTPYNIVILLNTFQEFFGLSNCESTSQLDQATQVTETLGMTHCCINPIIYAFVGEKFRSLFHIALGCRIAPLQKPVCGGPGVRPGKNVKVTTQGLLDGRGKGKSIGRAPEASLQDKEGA

Sequence of Cytochrome P450 2D6 (P10635 whole entry): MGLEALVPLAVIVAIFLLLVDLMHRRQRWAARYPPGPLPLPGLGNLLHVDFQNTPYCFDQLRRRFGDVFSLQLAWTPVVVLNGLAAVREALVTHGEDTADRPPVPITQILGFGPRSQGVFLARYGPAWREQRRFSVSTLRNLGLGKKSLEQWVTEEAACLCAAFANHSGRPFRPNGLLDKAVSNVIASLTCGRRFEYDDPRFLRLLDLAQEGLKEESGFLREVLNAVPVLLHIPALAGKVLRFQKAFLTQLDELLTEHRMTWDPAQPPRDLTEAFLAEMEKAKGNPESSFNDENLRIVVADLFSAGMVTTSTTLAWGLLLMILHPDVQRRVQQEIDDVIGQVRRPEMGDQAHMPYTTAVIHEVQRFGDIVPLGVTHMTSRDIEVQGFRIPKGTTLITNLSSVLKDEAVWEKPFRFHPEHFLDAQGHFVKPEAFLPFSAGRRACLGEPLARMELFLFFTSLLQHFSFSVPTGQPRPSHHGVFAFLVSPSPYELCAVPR
Sequence of Cytochrome P450 2C19 (P33261 whole entry): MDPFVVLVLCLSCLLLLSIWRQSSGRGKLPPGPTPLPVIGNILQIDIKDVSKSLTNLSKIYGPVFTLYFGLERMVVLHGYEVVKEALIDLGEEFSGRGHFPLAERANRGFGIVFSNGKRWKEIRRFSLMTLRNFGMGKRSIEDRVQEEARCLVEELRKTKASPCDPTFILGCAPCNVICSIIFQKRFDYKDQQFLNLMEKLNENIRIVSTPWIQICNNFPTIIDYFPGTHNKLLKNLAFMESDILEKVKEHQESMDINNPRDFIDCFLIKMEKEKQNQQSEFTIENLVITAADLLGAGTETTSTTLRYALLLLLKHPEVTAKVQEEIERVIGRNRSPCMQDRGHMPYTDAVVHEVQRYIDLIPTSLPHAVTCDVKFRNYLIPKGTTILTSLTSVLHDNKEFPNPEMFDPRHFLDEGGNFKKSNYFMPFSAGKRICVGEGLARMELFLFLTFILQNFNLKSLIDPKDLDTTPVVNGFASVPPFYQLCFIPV
Sequence of C-C chemokine receptor type 5 (Homo sapiens) (P51681 whole entry, looked up): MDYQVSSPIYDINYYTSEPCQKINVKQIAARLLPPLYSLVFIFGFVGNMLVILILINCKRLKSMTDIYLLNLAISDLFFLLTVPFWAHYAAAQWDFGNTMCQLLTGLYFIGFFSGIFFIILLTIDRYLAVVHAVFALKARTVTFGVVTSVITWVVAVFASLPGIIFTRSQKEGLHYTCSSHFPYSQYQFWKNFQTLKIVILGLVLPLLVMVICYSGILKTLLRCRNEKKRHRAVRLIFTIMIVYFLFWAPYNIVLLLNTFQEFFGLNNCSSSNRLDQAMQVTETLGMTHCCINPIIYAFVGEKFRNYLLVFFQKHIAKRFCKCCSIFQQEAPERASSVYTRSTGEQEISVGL
Sequence of Cytochrome P450 2C9 (P11712 whole entry): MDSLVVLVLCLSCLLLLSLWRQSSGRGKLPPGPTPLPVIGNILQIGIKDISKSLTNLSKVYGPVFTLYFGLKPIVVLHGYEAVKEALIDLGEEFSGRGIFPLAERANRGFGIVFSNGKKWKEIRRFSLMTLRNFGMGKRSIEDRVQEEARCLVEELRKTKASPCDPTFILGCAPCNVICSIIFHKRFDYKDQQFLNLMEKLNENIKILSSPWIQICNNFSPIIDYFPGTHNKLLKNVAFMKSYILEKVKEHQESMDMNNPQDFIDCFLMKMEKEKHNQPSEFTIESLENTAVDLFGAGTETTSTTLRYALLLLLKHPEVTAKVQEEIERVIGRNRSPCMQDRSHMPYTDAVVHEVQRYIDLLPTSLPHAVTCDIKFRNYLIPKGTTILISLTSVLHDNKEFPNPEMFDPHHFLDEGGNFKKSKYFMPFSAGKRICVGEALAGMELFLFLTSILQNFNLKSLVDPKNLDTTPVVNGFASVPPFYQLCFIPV
Sequence of Cytochrome P450 3A4 (P08684 whole entry): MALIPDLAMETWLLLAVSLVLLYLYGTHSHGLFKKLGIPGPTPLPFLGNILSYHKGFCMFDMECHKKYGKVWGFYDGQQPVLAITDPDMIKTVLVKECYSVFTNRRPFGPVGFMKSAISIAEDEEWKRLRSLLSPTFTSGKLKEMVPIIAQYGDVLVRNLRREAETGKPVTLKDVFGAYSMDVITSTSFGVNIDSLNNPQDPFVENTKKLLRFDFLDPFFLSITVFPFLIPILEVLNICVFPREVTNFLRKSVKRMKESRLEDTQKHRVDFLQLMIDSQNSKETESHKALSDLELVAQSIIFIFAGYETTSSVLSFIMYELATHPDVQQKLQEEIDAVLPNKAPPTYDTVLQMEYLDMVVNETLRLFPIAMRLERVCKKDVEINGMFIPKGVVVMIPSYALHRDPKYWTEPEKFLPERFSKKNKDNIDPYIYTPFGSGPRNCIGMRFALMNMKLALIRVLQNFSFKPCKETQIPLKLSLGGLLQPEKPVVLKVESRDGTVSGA

Usually IC50 stands for the point on the concentration scale where inhibition reaches its midpoint. For `O=C(NC1C[C@H]2CC[C@H](C1)N2Cc1ccc2cc(F)ccc2c1)c1ccccc1-c1ccccc1` (stereo partly specified), the half-maximal inhibitory concentration (IC50) at Cytochrome P450 1A2, on Cytochrome P450 2C9, against Cytochrome P450 3A4 and at Cytochrome P450 2C19 was more than 20000 nM each time.
As to `O=C(N[C@@H]1C[C@H]2CC[C@@H](C1)N2Cc1ccc2cc(F)ccc2c1)c1ccccc1-c1cccnc1`, the figures for the IC50 (on Cytochrome P450 2D6; in assay [1]) were 1600 nM and 29 nM, respectively.
The like results for `CN(C(=O)c1ccccc1C(=O)N[C@@H]1C[C@H]2CC[C@@H](C1)N2Cc1ccc2cc(F)ccc2c1)C1CCCCC1` were, in that order, 2900 nM and 44 nM.
On the same counts, the results for `O=C(N[C@@H]1C[C@H]2CC[C@@H](C1)N2Cc1ccc2cc(F)ccc2c1)c1ccccc1OC1CCCCC1` are 580 nM and 118 nM.
Regarding `O=C(N[C@@H]1C[C@H]2CC[C@@H](C1)N2Cc1ccc2cc(F)ccc2c1)c1ccccc1-n1ccnc1`, the IC50 in assay [1] amounted to 217 nM.
As for `O=C(N[C@@H]1C[C@H]2CC[C@@H](C1)N2Cc1ccc2cc(F)ccc2c1)c1cnccc1C(=O)N1CCCCC1`, the results for the IC50 (on Cytochrome P450 2D6; in assay [1]) were 26700 nM and 85 nM, respectively.
The like results for `O=C(N[C@@H]1C[C@H]2CC[C@@H](C1)N2Cc1ccc2cc(F)ccc2c1)c1ccccc1C(=O)N1CCCCCC1` were, in that order, 3000 nM and 12 nM.
With `O=C(N[C@@H]1C[C@H]2CC[C@@H](C1)N2Cc1ccc2cc(F)ccc2c1)c1ccccc1N1CCCCC1`, the IC50 in [1] stood at 279 nM.
`O=C(N[C@@H]1C[C@H]2CC[C@@H](C1)N2Cc1ccc2cc(F)ccc2c1)c1ccccc1-c1cncnc1`: the IC50 at Cytochrome P450 2D6 stood at 2900 nM; in [1], 93 nM.
On the same counts, the results for `O=C(N[C@@H]1C[C@H]2CC[C@@H](C1)N2Cc1ccc2cc(F)ccc2c1)c1ccccc1C(=O)N1CCCC1` are 7300 nM and 225 nM.
For the molecule `O=C(N[C@@H]1C[C@H]2CC[C@@H](C1)N2Cc1ccc2cc(F)ccc2c1)c1cc[n+]([O-])cc1C(=O)N1CCCCC1`, the outcome in assay [2], in assay [3] and in assay [4] was inactive.
For `O=C(N[C@@H]1C[C@H]2CC[C@@H](C1)N2Cc1ccc2cc(F)ccc2c1)c1ccccc1-c1nccs1`, the half-inhibitory concentration (IC50) on Cytochrome P450 2D6 turned out to be 2400 nM; in assay [1], 89 nM.
Turning to `O=C(N[C@@H]1C[C@H]2CC[C@@H](C1)N2Cc1ccc2cc(F)ccc2c1)c1ccccc1-n1cccc1`, the IC50 in [1] was 221 nM.
Take `O=C(N[C@@H]1C[C@H]2CC[C@@H](C1)N2Cc1ccc2cc(F)ccc2c1)c1ccccc1C(=O)N1CCOCC1`: the figures for the 50% inhibitory concentration (IC50) (at Cytochrome P450 2D6; in assay [1]) were 8200 nM and 679 nM, respectively.
On the same counts, the results for `O=C(N[C@@H]1C[C@H]2CC[C@@H](C1)N2Cc1ccc2cc(F)ccc2c1)c1cccnc1C(=O)N1CCCCC1` are 18300 nM and 98 nM.
On the same counts, the results for `O=C(N[C@@H]1C[C@H]2CC[C@@H](C1)N2Cc1ccc2cc(F)ccc2c1)c1ccccc1C(=O)N1CCCCC1` are 6500 nM and 23 nM.
On the same counts, the results for `O=C(N[C@@H]1C[C@H]2CC[C@@H](C1)N2Cc1ccc2cc(F)ccc2c1)c1ncccc1C(=O)N1CCCCC1` are 23500 nM and 131 nM.
On to `O=C(N[C@@H]1C[C@H]2CC[C@@H](C1)N2Cc1ccc2cc(F)ccc2c1)c1ccccc1-c1ccncc1`, for which, in assay [1], the IC50 is 613 nM.
Regarding `O=C(N[C@@H]1C[C@H]2CC[C@@H](C1)N2Cc1ccc2cc(F)ccc2c1)c1ccncc1C(=O)N1CCCCC1`, the IC50 turned out to be 6800 nM at Cytochrome P450 2D6 and 13 nM in [1].
On the same counts, the results for `O=C(N[C@@H]1C[C@H]2CC[C@@H](C1)N2Cc1ccc2cc(F)ccc2c1)c1ccccc1-c1ccccn1` are 4000 nM and 57 nM.
On the same counts, the results for `CN1CCN(C(=O)c2ccccc2C(=O)N[C@@H]2C[C@H]3CC[C@@H](C2)N3Cc2ccc3cc(F)ccc3c2)CC1` are 7100 nM and 482 nM.
